Source: ChEMBL document CHEMBL1909046, “DrugMatrix in vitro pharmacology data”
pIC50: −log10 of the molar value.

Assays:
[1] = molecular target: Glycine receptor (Rattus norvegicus, UniProt P22771+P24524+P07727+P20781); format: cell membranes, Wistar, Spinal cord, Membrane; further: in other assays of this panel Not Active means under 50% inhibition at 10 µM
[2] = molecular target: Sodium-dependent dopamine transporter (Homo sapiens, UniProt Q01959); assay: DRUGMATRIX: Dopamine Transporter radioligand binding (ligand: [125I] RTI-55); format: cell membranes, CHO-K1, Membrane; conditions: cho-k1; Not Active = under 50% inhibition at 10 µM
[3] = molecular target: T1, Cholecystokinin receptor type A (Homo sapiens, UniProt P32238); format: cell membranes, Membrane; conditions: 1321-n1; further: in other assays of this panel Not Active means under 50% inhibition at 10 µM
T1 sequence (P32238 whole entry): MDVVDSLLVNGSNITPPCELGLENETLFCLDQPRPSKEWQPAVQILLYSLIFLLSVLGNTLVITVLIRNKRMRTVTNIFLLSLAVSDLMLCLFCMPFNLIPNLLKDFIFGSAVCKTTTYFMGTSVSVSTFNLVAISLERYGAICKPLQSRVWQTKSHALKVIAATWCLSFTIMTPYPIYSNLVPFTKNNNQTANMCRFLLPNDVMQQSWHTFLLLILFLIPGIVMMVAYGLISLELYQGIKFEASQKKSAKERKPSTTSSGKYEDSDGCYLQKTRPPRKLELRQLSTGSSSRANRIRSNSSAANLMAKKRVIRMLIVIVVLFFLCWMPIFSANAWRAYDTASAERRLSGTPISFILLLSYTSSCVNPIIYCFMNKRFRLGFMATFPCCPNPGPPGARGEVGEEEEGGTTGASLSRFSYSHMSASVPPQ

[4] = molecular target: Receptor tyrosine-protein kinase erbB-2 (Homo sapiens, UniProt P04626); format: cell-based; conditions: insect cells;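 further: inhibition of HER2 kinase enzyme activity, measured with Poly(Glu:Tyr) as the phosphorylation substrate; in other assays of this panel Not Active means under 50% inhibition at 10 µM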
[5] = molecular target: Tyrosine-protein kinase Fyn (Homo sapiens, UniProt P06241); assay: biochemical; format: cell-based, Insect cells; conditions: for pIC50: read-out: IC50;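 on all read-outs here: enzymatic inhibition of Fyn kinase activity measured with Poly(Glu:Tyr) as the phosphorylation substrate; in other assays of this panel Not Active means under 50% inhibition at 10 µM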
[6] = DRUGMATRIX: Nicotinic Acetylcholine radioligand binding (ligand: [125I] Epibatidine); format: cell membranes, Membrane; conditions: imr-32; Not Active = under 50% inhibition at 10 µM
[7] = DRUGMATRIX: Phorbol Ester radioligand binding (ligand: [3H] PDBu); format: cell membranes, Mus musculus, ICR, Brain, Membrane; conditions: Not Active = under 50% inhibition at 10 µM
[8] = DRUGMATRIX: Interleukin IL-1 radioligand binding (ligand: [125I] interleukin 1beta); format: cell membranes, Membrane; conditions: nih3t3; Not Active = under 50% inhibition at 10 µM

Tyrosine-protein kinase Fyn, sequence (P06241 whole entry): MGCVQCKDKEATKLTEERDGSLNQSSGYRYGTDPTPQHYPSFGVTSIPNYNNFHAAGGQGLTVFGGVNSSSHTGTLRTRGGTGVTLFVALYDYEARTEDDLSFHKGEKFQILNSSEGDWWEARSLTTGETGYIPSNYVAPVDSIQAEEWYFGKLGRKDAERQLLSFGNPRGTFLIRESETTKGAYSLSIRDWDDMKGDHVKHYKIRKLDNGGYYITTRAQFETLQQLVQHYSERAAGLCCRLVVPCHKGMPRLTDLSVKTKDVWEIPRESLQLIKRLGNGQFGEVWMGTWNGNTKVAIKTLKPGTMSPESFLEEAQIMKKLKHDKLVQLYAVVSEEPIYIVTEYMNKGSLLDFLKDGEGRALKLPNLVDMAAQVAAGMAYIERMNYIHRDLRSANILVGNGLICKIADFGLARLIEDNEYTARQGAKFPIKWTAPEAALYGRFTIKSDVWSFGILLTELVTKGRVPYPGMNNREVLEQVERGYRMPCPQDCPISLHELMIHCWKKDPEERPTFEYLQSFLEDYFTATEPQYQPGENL
Sodium-dependent dopamine transporter, sequence (Q01959 whole entry): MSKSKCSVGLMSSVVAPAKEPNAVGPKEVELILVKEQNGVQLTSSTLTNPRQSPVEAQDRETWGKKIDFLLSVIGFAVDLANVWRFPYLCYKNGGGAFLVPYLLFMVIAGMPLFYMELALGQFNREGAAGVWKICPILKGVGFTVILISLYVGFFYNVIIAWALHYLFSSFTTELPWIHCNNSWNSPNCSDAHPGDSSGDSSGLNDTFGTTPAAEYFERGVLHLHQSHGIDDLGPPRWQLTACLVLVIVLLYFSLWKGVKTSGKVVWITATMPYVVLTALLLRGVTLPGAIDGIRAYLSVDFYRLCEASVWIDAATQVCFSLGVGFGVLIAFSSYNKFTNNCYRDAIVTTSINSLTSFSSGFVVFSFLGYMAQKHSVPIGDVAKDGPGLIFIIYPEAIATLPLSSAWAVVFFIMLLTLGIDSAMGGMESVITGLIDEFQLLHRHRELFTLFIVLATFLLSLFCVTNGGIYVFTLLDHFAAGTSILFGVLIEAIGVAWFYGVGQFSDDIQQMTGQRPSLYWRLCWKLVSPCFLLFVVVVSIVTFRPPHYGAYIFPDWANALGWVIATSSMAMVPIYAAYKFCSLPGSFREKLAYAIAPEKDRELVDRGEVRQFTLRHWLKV

CC(=O)O[C@]1(C(C)=O)CC[C@H]2[C@@H]3C[C@H](C)C4=CC(=O)CC[C@]4(C)[C@H]3CC[C@@]21C [MEDROXYPROGESTERONE ACETATE]
Not Active: IC50 [1] | IC50 [2] | IC50 [3] | IC50 [4] | IC50 ([5]; insect cells) | IC50 [6] | Ki [6] | IC50 [7] | Ki [7] | IC50 [8] | Ki [8]

CCN1CCCC1CNC(=O)c1cc(S(N)(=O)=O)ccc1OC (stereo not drawn) [SULPIRIDE]
Not Active: IC50 [1] | IC50 [2] | IC50 [3] | IC50 [4] | IC50 ([5]; insect cells) | IC50 [6] | Ki [6] | IC50 [7] | Ki [7] | IC50 [8] | Ki [8]

CC(O)C(=O)O (stereo not drawn) [LACTIC ACID]
Not Active: IC50 [1] | IC50 [2] | IC50 [3] | IC50 [4] | IC50 ([5]; insect cells) | IC50 [6] | Ki [6] | IC50 [7] | Ki [7] | IC50 [8] | Ki [8]

CC(Cl)(Cl)Cl [TRICHLOROETHANE]
Not Active: IC50 [1] | IC50 [2] | IC50 [3] | IC50 [4] | IC50 ([5]; insect cells) | IC50 [6] | Ki [6] | IC50 [7] | Ki [7] | IC50 [8] | Ki [8]

CCC(C)(C)C(=O)O[C@H]1C[C@@H](C)C=C2C=C[C@H](C)[C@H](CC[C@@H]3C[C@@H](O)CC(=O)O3)[C@H]21 [SIMVASTATIN]
Not Active: IC50 [1] | IC50 [2] | IC50 [3] | IC50 [4] | IC50 ([5]; insect cells) | IC50 [6] | Ki [6] | IC50 [7] | Ki [7] | IC50 [8] | Ki [8]

Cc1ccnc(NS(=O)(=O)c2ccc(N)cc2)n1 [SULFAMERAZINE]
Not Active: IC50 [1] | IC50 [2] | IC50 [3] | IC50 [4] | IC50 ([5]; insect cells) | IC50 [6] | Ki [6] | IC50 [7] | Ki [7] | IC50 [8] | Ki [8]

CCN(CC)N=O [N-NITROSODIETHYLAMINE]
Not Active: IC50 [1] | IC50 [2] | IC50 [3] | IC50 [4] | IC50 ([5]; insect cells) | IC50 [6] | Ki [6] | IC50 [7] | Ki [7] | IC50 [8] | Ki [8]

CC#C[C@]1(O)CC[C@H]2[C@@H]3CCC4=CC(=O)CCC4=C3[C@@H](c3ccc(N(C)C)cc3)C[C@@]21C [MIFEPRISTONE]
4.67: pIC50 [5]
Not Active: IC50 [1] | IC50 [2] | IC50 [3] | IC50 [4] | IC50 [6] | Ki [6] | IC50 [7] | Ki [7] | IC50 [8] | Ki [8]

LEAD(IV) ACETATE
Not Active: IC50 [1] | Ki [1] | IC50 [2] | Ki [2] | IC50 [3] | Ki [3] | IC50 [4] | Ki [4] | IC50 [6] | Ki [6] | IC50 [7] | Ki [7] | IC50 [8] | Ki [8]
5.48: pIC50 ([5]; insect cells)

O=C(OC[C@H]1O[C@@H](OC(=O)c2cc(O)c(O)c(OC(=O)c3cc(O)c(O)c(O)c3)c2)[C@H](OC(=O)c2cc(O)c(O)c(OC(=O)c3cc(O)c(O)c(O)c3)c2)[C@@H](OC(=O)c2cc(O)c(O)c(OC(=O)c3cc(O)c(O)c(O)c3)c2)[C@@H]1OC(=O)c1cc(O)c(O)c(OC(=O)c2cc(O)c(O)c(O)c2)c1)c1cc(O)c(O)c(OC(=O)c2cc(O)c(O)c(O)c2)c1 [TANNIC ACID]
7.66: pIC50 [5]
Not Active: IC50 [1] | IC50 [2] | IC50 [3] | IC50 [4] | IC50 [6] | Ki [6] | IC50 [7] | Ki [7] | IC50 [8] | Ki [8]

Oc1ccc(/C=C/c2cc(O)cc(O)c2)cc1 [RESVERATROL]
Not Active: IC50 [1] | IC50 [2] | IC50 [3] | IC50 [4] | IC50 ([5]; insect cells) | IC50 [6] | Ki [6] | IC50 [7] | Ki [7] | IC50 [8] | Ki [8]

CC[C@@]1(O)C(=O)OCc2c1cc1n(c2=O)Cc2cc3c(CN(C)C)c(O)ccc3nc2-1 [TOPOTECAN]
Not Active: IC50 [1] | IC50 [2] | IC50 [3] | IC50 [4] | IC50 ([5]; insect cells) | IC50 [6] | Ki [6] | IC50 [7] | Ki [7] | IC50 [8] | Ki [8]

C=CCc1ccc2c(c1)OCO2 [SAFROLE]
Not Active: IC50 [1] | IC50 [2] | IC50 [3] | IC50 [4] | IC50 ([5]; insect cells) | IC50 [6] | Ki [6] | IC50 [7] | Ki [7] | IC50 [8] | Ki [8]

C1CCN2C[C@@H]3C[C@@H](CN4CCCC[C@@H]34)[C@H]2C1 [SPARTEINE]
Not Active: IC50 [1] | IC50 [2] | IC50 [3] | IC50 [4] | IC50 ([5]; insect cells) | IC50 [6] | Ki [6] | IC50 [7] | Ki [7] | IC50 [8] | Ki [8]

CC[C@H](C)C(=O)O[C@H]1CCC=C2C=C[C@H](C)[C@H](CC[C@@H]3C[C@@H](O)CC(=O)O3)[C@H]21 [MEVASTATIN]
Not Active: IC50 [1] | IC50 [2] | IC50 [3] | IC50 [4] | IC50 ([5]; insect cells) | IC50 [6] | Ki [6] | IC50 [7] | Ki [7] | IC50 [8] | Ki [8]

CS(=O)(=O)c1ccc(C2=C(c3ccccc3)C(=O)OC2)cc1 [ROFECOXIB]
Not Active: IC50 [1] | IC50 [2] | IC50 [3] | IC50 [4] | IC50 ([5]; insect cells) | IC50 [6] | Ki [6] | IC50 [7] | Ki [7] | IC50 [8] | Ki [8]

Cc1cn([C@H]2C=C[C@@H](CO)O2)c(=O)[nH]c1=O [STAVUDINE]
Not Active: IC50 [1] | IC50 [2] | IC50 [3] | IC50 [4] | IC50 ([5]; insect cells) | IC50 [6] | Ki [6] | IC50 [7] | Ki [7] | IC50 [8] | Ki [8]

Nc1nc(N)c2nc(-c3ccccc3)c(N)nc2n1
Not Active: IC50 [1] | IC50 [2] | IC50 [3] | IC50 [4] | IC50 ([5]; insect cells) | IC50 [6] | Ki [6] | IC50 [7] | Ki [7] | IC50 [8] | Ki [8]

Cc1[nH]c(=O)c(C#N)cc1-c1ccncc1 [MILRINONE]
Not Active: IC50 [1] | IC50 [2] | IC50 [3] | IC50 [4] | IC50 ([5]; insect cells) | IC50 [6] | Ki [6] | IC50 [7] | Ki [7] | IC50 [8] | Ki [8]
